Structures are written as SMILES. pIC50: −log10 of the molar value.

The text below walks through data of US20080213172A1, “RADIOIMAGING MOIETIES COUPLED TO PEPTIDEASE-BINDING MOIETIES FOR IMAGING TISSUES AND ORGANS THAT EXPRESS PEPTIDASES” (Molecular Insight Pharmaceuticals, Inc., priority 2006, published 2008).

The assay deals with T1, purified rabbit lung ACE (Oryctolagus cuniculus, UniProt P12822).
T1 construct: The rabbit lung ACE (Sigma A6778) was reconstituted to a concentration of 1 unit/3 ml water; purchased Sigma A6778; host or cells: rabbit lung tissue
T1 sequence (P12822 34-1310): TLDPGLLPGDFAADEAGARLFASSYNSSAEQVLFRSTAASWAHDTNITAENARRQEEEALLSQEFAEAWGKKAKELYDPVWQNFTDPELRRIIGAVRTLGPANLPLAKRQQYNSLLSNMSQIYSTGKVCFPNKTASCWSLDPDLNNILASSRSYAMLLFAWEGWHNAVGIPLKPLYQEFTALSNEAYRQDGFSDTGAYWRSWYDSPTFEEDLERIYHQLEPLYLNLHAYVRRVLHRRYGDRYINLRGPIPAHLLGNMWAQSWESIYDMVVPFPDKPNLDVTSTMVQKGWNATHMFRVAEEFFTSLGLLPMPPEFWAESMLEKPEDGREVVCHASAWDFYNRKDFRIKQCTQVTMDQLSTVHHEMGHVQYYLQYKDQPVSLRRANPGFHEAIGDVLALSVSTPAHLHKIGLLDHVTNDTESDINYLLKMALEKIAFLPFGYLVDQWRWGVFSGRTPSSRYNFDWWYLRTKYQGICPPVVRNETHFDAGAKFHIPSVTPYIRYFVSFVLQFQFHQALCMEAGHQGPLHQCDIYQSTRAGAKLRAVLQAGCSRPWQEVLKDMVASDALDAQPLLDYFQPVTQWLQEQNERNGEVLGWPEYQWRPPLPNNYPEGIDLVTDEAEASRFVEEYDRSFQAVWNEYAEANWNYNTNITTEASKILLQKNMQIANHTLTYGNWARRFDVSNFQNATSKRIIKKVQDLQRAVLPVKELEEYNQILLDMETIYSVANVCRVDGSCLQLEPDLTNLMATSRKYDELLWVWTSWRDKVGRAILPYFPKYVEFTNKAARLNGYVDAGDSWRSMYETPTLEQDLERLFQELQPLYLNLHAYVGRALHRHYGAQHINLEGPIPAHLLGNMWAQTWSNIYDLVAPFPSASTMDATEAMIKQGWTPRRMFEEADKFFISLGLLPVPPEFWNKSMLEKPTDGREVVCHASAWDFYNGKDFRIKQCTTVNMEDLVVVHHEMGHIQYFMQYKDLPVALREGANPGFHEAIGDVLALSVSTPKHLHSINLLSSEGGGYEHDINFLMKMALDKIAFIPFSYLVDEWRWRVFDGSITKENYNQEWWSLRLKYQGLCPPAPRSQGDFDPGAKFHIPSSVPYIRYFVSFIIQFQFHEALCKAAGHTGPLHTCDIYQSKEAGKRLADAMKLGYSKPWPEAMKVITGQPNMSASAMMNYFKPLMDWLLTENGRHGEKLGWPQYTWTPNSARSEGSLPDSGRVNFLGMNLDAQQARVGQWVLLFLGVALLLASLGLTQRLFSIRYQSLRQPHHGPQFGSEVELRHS
Put plainly: In vitro ACE activity colorimetric assay (Fujirebio ACE color kit). The class given is biochemical. On the procedure:
ACE inhibition was evaluated in vitro against rabbit lung ACE using a colorimetric assay.
A range of concentrations of each compound was examined for the ability to inhibit ACE cleavage of p-hydroxybenzoyl-glycine L-histidyl-L-leucine using a commercially available in vitro biochemical assay according to manufacturer's specifications (Fujirebio). The source of ACE enzyme chosen for the analysis was purified rabbit lung ACE (Sigrna) at 3.3 mU/sample. Lisinopril was included in each experiment as a positive control.
Angiotensin converting enzyme (ACE) activity was determined using the ACE color kit (Fujirebio) according to the manufacturers instructions. ACE acts upon p-hydroxybenzoyl-glycyl-L-histidyl-L-leucine to produce p-hydroxybenzoyl-glycine, which is converted to p-hydroxybenzoic acid by hippuricase. Quinoneimine dye is produced by oxidation and condensation of the p-hydroxybenzoic acid and 4-aminoantipyrine using sodium metaperiodate. The concentration of quinoneimine dye is quantitatively measured at its absorbance maximum of 505 nm. This assay was designed to compare the tissue and plasma specificity of rhenium-labeled ACE inhibitors in an ACE colorimetric assay.
Preparation of reagents: The ACE color kit was purchased from Fujirebio and the assay was conducted according to the manufacturer's instructions: reconstitute substrate with 5.6 ml of buffer solution, reconstitute blank with 5.6 ml of buffer solution for blank, reconstitute developer with 15.5 ml of stopper solution. The rabbit lung ACE (Sigma A6778) was reconstituted to a concentration of 1 unit/3 ml water.
Substrate or blank solution (125 μL) was then added and incubated at 37° C. for 20 min. The developer solution was added and incubated 37° C. for 3 min. The activity of the test compounds was determined by measuring the absorbance at 505 nm on a spectrophotometer. The optimal amount of serum ACE (25 μL) and tissue ACE (3.3 mUnits) was used to determine the specificity of the rhenium-labled ACE inhibitors. Test compounds, including lisinopril and captopril, were prepared (50 μM stock) and serially diluted 10-fold for final concentrations ranging from 1 μM to 0.1 nM (10 μL/assay tube). The assay was conducted as described above.
In vitro ACE activity assay. The ability of test compounds to inhibit ACE activity was determined using the ACEcolor kit from Fujirebio, Inc. according to the manufacturer's instructions. Purified rabbit lung ACE. (3.3 mUnits, Sigrna Chemicals) was incubated for 20 min with the test compound at concentrations of 1 μM to 0.1 nM in a solution of substrate at 37° C. Developer solution was added and the samples were incubated for an additional 5 minutes at 37° C. before reading at 505 nm in a spectrophotometer.

The mark [1] stands for this setting: free D(Cx)L ligands, rabbit lung ACE 3.3 mU/sample.

Usually pIC50 stands for the negative decadic logarithm of the IC50, by convention in mol/L. The compound `O=C(CCCCCN(Cc1ccccn1)Cc1ccccn1)NCCCCC(NC(CCc1ccccc1)C(=O)O)C(=O)N1CCCC1C(=O)O` (stereo not drawn) [D(C6)L] showed a negative-log IC50 (pIC50) under setting [1] of 7.37.

As to `O=C(CCCCCCCN(Cc1ccccn1)Cc1ccccn1)NCCCCC(NC(CCc1ccccc1)C(=O)O)C(=O)N1CCCC1C(=O)O` (stereo not drawn) [D(C8)L], under setting [1], the negative logarithm of the IC50 (pIC50) was 7.71.

Consider `O=C(CCCN(Cc1ccccn1)Cc1ccccn1)NCCCCC(NC(CCc1ccccc1)C(=O)O)C(=O)N1CCCC1C(=O)O` (stereo not drawn) [D(C4)L], for which the negative-log IC50 (pIC50) under setting [1] was 7.08.

In turn, `O=C(CCCCN(Cc1ccccn1)Cc1ccccn1)NCCCCC(NC(CCc1ccccc1)C(=O)O)C(=O)N1CCCC1C(=O)O` (stereo not drawn) [D(C5)L] had a pIC50 under setting [1] of 7.37.

Consider `NCCCC[C@H](N[C@@H](CCc1ccccc1)C(=O)O)C(=O)N1CCC[C@H]1C(=O)O` [Lisinopril, reference compound], for which the pIC50 runs as follows: (Re-complexes, purified rabbit lung ACE) 8.40; under setting [1], 8.60.
